The values that follow come from patent US5629430A, “Trifluoromethylpyrroloindolecarboxylic acid ester and process for production thereof” (Kyorin Pharmaceutical Co., Ltd., priority 1992, dated 1997).

One test deals with P388 cells. The test is described as follows: Antineoplastic activity, mice having P388 cells transplanted in abdominal cavity. The conditions noted are these: two mice, Cured: Survived for 60 days or longer. Format: in vivo, mouse (female, CDF1 strain). As for the experimental part: The test compound was dissolved in dimethylsulfoxide, and the solution was adequately diluted with 10% Emulfore EL620(produced by Rhone Poulenc Co.) to prepare the test compound solution. The antineoplastic activity was evaluated as below.
To the abdominal cavity of a female mouse (CDF1 strain, 8 to 9 week age), 1×10^6 P388 cells were transplanted. Next day, the test medicine solution was injected intraperitonealy in a single dose. Five to eight mice were employed for the solvent-dosed control group, and two mice were employed for each of the dosed groups. The antineoplastic effect was evaluated by the ratio (T/C, %) of the average survival days of the dosed group (T) to the average survival days of the solvent-dosed control group(C). The T/C ratio of 130% or more is evaluated to be effective.
"Cured": Survived for 60 days or longer

For another test, the system named is Colon-26 cells. The test is described as follows: Antineoplastic activity, mice having Colon-26 cells transplanted subcutaneously. The test is classed as in vivo, mouse (female, CDF1 strain). As to conditions: Mus musculus, Colon 26, iv, 168 h, read-out: T/C (average tumor weight, dosed vs. solvent-dosed control); for response vs control in vivo at 0.25 mg/kg: i.v. 0.25 mg/kg single dose on sixth day, tumor weighed one week after dosage. Put shortly: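 Female CDF1 mice had 1×10^6 Colon-26 cells implanted subcutaneously. On day 6 they got a single intravenous tail-vein dose of compound in DMSO/10% Emulfor EL620. Tumours were weighed one week later; activity is the T/C ratio of mean tumour weights versus vehicle controls.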

Test [1] relates to P388 mouse leukemia cells. The test is described as follows: Activity against tumor cell growth (P388, MTT, 72 h). The test is classed as cell-based. The conditions noted are these: read-out: IC50 (50% growth inhibition concentration). The method, boiled down:
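P388 cells at 1.5×10^5 cells/ml in RPMI1640 with 10% FBS, 2 mM glutamine and 5 μM 2-hydroxyethyldisulfide; DMSO-dissolved compound diluted in medium, 72 h at 37 °C, 5% CO2. MTT added for 3 h, formazan dissolved in HCl-isopropanol, A540 read. IC50 from absorbance ratio versus untreated cells.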

Another test deals with Sarcoma-180 cells. The test is described as follows: Antineoplastic activity, mice having Sarcoma-180 cells transplanted subcutaneously. The conditions noted are these: Mus musculus, Sarcoma-180, iv, 144 h, read-out: T/C (average tumor weight, dosed vs. solvent-dosed control); for response vs control in vivo at 0.25 mg/kg: i.v. 0.25 mg/kg single dose, tumor weighed six days after dosage. The test is classed as in vivo, mouse (female, CDR strain). Put shortly:
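Female CDR mice, 5–6 weeks, implanted subcutaneously with 3.6×10^6 to 5×10^6 Sarcoma-180 cells; next day a single tail-vein dose of compound in DMSO diluted with 10% Emulfore EL620. Tumors excised and weighed six days post-dose; efficacy expressed as T/C ratio of mean tumor weights versus solvent controls.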

Setting [2] is: P388 mouse leukemia cells, 72 h, 37° C., MTT.

Converted amounts (≈) assume the structure as drawn. Like-named read-outs stand apart in the source and are kept apart here.

For the molecule `COC(=O)c1c(C(F)(F)F)[nH]c2c1C13CC1CN(C(=O)c1cc4cc(NC(=O)c5cc6ccccc6[nH]5)ccc4[nH]1)C3=CC2=O` (centres unmarked) [Example 23, Methyl 2-[5-[(1H-indol-2-ylcarbonyl)amino]-1H-indol-2-ylcarbonyl]-6-trifluoromethyl-1,2,8,8a-tetrahydrocyclopropa[c]pyrrolo[3,2-e]indole-4 (5H)-one-7-carboxylate], in the test on P388 cells (i.p. 0.25 mg/kg single dose), the “T/C in words: cure (Survived for 60 days or longer)” value (“T/C in words: cure” below) is given as “Both cured”. In addition, the response vs control in vivo at 0.25 mg/kg in the test with Colon-26 cells was 12%; in the test on Sarcoma-180 cells, 16%. In test [1] (setting [2]), the IC50 stood at 0.00086 µg/mL (≈ 0.0014 µM).
Regarding `COC(=O)c1c(C(F)(F)F)[nH]c2c1C13CC1CN(C(=O)c1cc4cc(NC(=O)c5cc6ccccc6o5)ccc4[nH]1)C3=CC2=O` (centres unmarked) [Example 24, Methyl 2-[5-[(benzofuran-2-ylcarbonyl)amino]-1H-indol-2-ylcarbonyl]-6-trifluoromethyl-1,2,8,8a-tetrahydrocyclopropa[c]pyrrolo[3,2-e]indole-4 (5H)-one-7-carboxylate], the “T/C in words: cure” value with P388 cells (i.p. 0.125 mg/kg single dose) was “Both cured”. Further, the response vs control in vivo at 0.25 mg/kg in the test on Colon-26 cells was 11%; with Sarcoma-180 cells, 17%. For the same molecule, the IC50 in test [1] (setting [2]) came out at 0.00053 µg/mL (≈ 0.000862 µM).
Consider `COC(=O)c1c(C(F)(F)F)[nH]c2c(OC(=O)N3CCN(C)CC3)cc3c(c12)C(CBr)CN3C(=O)c1cc2cc(OC)c(OC)c(OC)c2[nH]1` (centres unmarked) [Example 47, Methyl 1-bromomethyl-5-(4-methylpiperazin-1-ylcarbonyl)oxy-7-trifluoromethyl-3-(5,6,7-trimethoxy-1H-indol-2-ylcarbonyl)-1,2,3,6-tetrahydropyrrolo[3,2-e]indole-8-carboxylate], for which the “T/C in words: cure” value in the test on P388 cells (i.p. 0.5 mg/kg single dose) was “Both cured”. For the same molecule, the response vs control in vivo at 1 mg/kg in the test on Colon-26 cells was 7%; in the test with Sarcoma-180 cells, 19%. Moreover, the IC50 in test [1] (Mus musculus, P388, 72 h) was found to be 0.031 µg/mL (≈ 0.0412 µM).
For `COC(=O)c1c(C(F)(F)F)[nH]c2c(OC(=O)N3CCN(C)CC3)cc3c(c12)C(CCl)CN3C(=O)c1cc2cc(NC(=O)c3cc4ccccc4o3)ccc2[nH]1` (centres unmarked) [Example 48], the “T/C in words: cure” value in the test with P388 cells (i.p. 0.5 mg/kg single dose) is “Both cured”. For the same molecule, the response vs control in vivo at 1 mg/kg in the test on Colon-26 cells amounted to 6%; in the test with Sarcoma-180 cells, 8%. The IC50 in test [1] (Mus musculus, P388, 72 h) was 0.08 µg/mL (≈ 0.103 µM).
For `COC(=O)c1c(C(F)(F)F)[nH]c2c(OC(=O)N3CCN(C)CC3)cc3c(c12)C(CBr)CN3C(=O)c1cc2cc(NC(=O)c3cc4ccccc4o3)ccc2[nH]1` (centres unmarked) [Example 49], the “T/C in words: cure” value in the test with P388 cells (i.p. 0.5 mg/kg single dose) was “Both cured”. For the same molecule, the response vs control in vivo at 0.5 mg/kg in the test on Colon-26 cells came out at 9%; in the test with Sarcoma-180 cells it was 12%. Further, the IC50 in test [1] (Mus musculus, P388, 72 h) was 0.089 µg/mL (≈ 0.108 µM).
